# US6710047B2, “Phthalazines with angiogenesis inhibiting activity” (Novartis AG, priority 1997, dated 2004)
# Experiments:
# [1] = molecular target: T1, Flt-1 VEGF-receptor tyrosine kinase (Homo sapiens, UniProt P17948); assay: Test for activity against Flt-1 VEGF-receptor tyrosine kinase
# T1 sequence (P17948 827-1158 limits assumed): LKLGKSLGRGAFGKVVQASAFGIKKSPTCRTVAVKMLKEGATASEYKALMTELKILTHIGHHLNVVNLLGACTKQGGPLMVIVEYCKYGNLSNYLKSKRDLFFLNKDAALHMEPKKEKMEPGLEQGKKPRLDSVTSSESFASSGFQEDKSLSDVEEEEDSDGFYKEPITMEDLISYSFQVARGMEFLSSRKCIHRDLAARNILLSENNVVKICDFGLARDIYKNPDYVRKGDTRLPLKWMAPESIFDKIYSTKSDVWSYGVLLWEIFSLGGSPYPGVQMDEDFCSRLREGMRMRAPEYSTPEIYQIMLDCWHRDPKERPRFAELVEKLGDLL
# Description: Test for activity against VEGF-receptor tyrosine kinase. The test is conducted using Flt-1 VEGF-receptor tyrosine kinase. […] The reaction is then ended by the addition of 10 μl 0.25 M ethylenediaminetetraacetate (EDTA) pH 7. Using a multichannel dispenser (LAB SYSTEMS, USA), an aliquot of 20 μl is applied to a PVDF (=polyvinyl difluoride) Immobilon P membrane (Millipore, USA), incorporating a Millipore microtiter filter manifold, and connected to a vacuum.
# The test is conducted using Flt-1 VEGF-receptor tyrosine kinase, as described hereinabove.
compound,measurement,setting,value
FC(F)(F)Oc1cccc(Nc2nnc(Cc3ccncc3)c3ccccc23)c1 [Example 67H],melting point,,176 to 178 °C
same,IC50,[1],615 nM
"Clc1ccc(Nc2nnc(Cc3ccncc3)c3cccnc23)cc1 [Example 74, 8-(4-Chloroanilino)-5-(4-pyridylmethyl)pyrido[2,3-d]pyridazine]",melting point,,196 to 197 °C
same,IC50,[1],1000 nM
"CS(=O)(=O)O.CS(=O)(=O)O.CS(=O)(=O)O.Nc1cccc(Nc2nnc(Cc3ccncc3)c3ccccc23)c1 [Example 20, 1-(3-Aminoanilino)-4-(4-pyridylmethyl)phthalazine trimesylate]",melting point,,249 to 251 °C
same,IC50,[1],500 nM
"c1ccc(CNc2nnc(Cc3ccncc3)c3ccccc23)cc1 [Example 7, 1-Benzylamino-4-(4-pyridylmethyl)phthalazine]",melting point,,137 to 138 °C
same,IC50,[1],640 nM
CC(=O)c1ccc(Nc2nnc(Cc3ccncc3)c3ccccc23)cc1O [Example 69],melting point,,234 to 236 °C
same,IC50,[1],742 nM
"Cc1cccc(Nc2nnc(Cc3ccncc3)c3ccccc23)c1 [Example 43, 1-(3-Methylanilino)-4-(4-pyridylmethyl)phthalazine]",melting point,,141 to 143 °C
same,IC50,[1],9070 nM
"Brc1ccc(Nc2nnc(Cc3ccncc3)c3ccccc23)cc1 [Example 22, 1-(4-Bromoanilino)-4-(4-pyridylmethyl)phthalazine]",melting point,,201 to 202 °C
same,IC50,[1],180 nM
"Cc1cc(C)cc(Nc2nnc(Cc3ccncc3)c3ccccc23)c1 [Example 46, 1-(3,5-Dimethylanilino)-4-(4-pyridylmethyl)phthalazine]",melting point,,174 to 175 °C
same,IC50,[1],349 nM
"COc1ccccc1Nc1nnc(Cc2ccncc2)c2ccccc12 [Example 14, 1-(2-Methoxyanilino)-4-(4-pyridylmethyl)phthalazine]",melting point,,190 to 191 °C
same,IC50,[1],740 nM
"Oc1ccc(Nc2nnc(Cc3ccncc3)c3ccccc23)cc1 [Example 19, 1-(4-Hydroxyanilino)-4-(4-pyridylmethyl)phthalazine]",melting point,,239 to 241 °C
same,IC50,[1],730 nM
Cc1ccc(Oc2nnc(Cc3ccncc3)c3ccccc23)cc1 [Example 72C],melting point,,175 to 176 °C
same,IC50,[1],747 nM
"Fc1cc(Cl)ccc1Nc1nnc(Cc2ccncc2)c2ccccc12 [Example 44D, 1-(4-Chloro-2-fluoroanilino)-4-(4-pyridylmethyl)phthalazine]",melting point,,157 to 159 °C
same,IC50,[1],317 nM
"Clc1ccc(Nc2nnc(OCc3ccncc3)c3ccccc23)cc1 [Example 50, 1-(4-Chloroanilino)-4-(4-pyridylmethoxy)phthalazine]",melting point,,139 to 141 °C
same,IC50,[1],195 nM
"N#Cc1ccc(Nc2nnc(Cc3ccncc3)c3ccccc23)cc1 [Example 24, 1-(4-Cyanoanilino)-4-(4-pyridylmethyl)phthalazine]",melting point,,228 to 230 °C
same,IC50,[1],666 nM
"Fc1ccc(Nc2nnc(Cc3ccncc3)c3ccccc23)cc1 [Example 17, 1-(4-Fluoroanilino)-4-(4-pyridylmethyl)phthalazine]",melting point,,129 to 131 °C
same,IC50,[1],290 nM
"CCCc1ccc(Nc2nnc(Cc3ccncc3)c3ccccc23)cc1 [Example 44B, 1-(4-Propylanilino)-4-(4-pyridylmethyl)phthalazine]",melting point,,180 to 181 °C
same,IC50,[1],234 nM
"Clc1ccc(Nc2nnc(Cc3ccncn3)c3ccccc23)cc1 [Example 66, 1-(4-Chloroanilino)-4-(4-pyrimidinylmethyl)phthalazine]",melting point,,174 to 176 °C
same,IC50,[1],2400 nM
"c1ccc2c(NC3CCCC3)nnc(Cc3ccncc3)c2c1 [Example 58, 1-Cyclopentylamino-4-(4-pyridylmethyl)phthalazine]",melting point,,163 to 165 °C
same,IC50,[1],7300 nM
Clc1ccc(Sc2nnc(Cc3ccncc3)c3ccccc23)cc1 [Example 72E],melting point,,204 to 206 °C
same,IC50,[1],1200 nM
